Experimental findings from patent US20070253896A1, “7,9-Dihydro-Purin-8-One and Related Analogs as HSP90-Inhibitors” (CONFORMA THERAPEUTICS CORPORATION, priority 2006, published 2007) are described below.

Assay [1] deals with MCF7 breast carcinoma cells. The assay is described as follows: MTS Assay. The class given is cell-based. Particulars: Homo sapiens, concentration giving 50% reduction in viable cell number. As to the method: MTS assays measure the cytotoxicity of geldanamycin derivatives. MTS (3-(4,5-dimethylthiazol-2-yl)-5-(3-carboxymethoxyphenyl)-2-(4-sulfophenyl)-2H-tetrazolium) is a tetrazolium dye that is converted to a formazan product by dehydrogenase enzymes of metabolically active cells (Corey, A. et al. “Use of an aqueous soluble tetrazolium/formazan assay for cell growth assays in culture,” Cancer Commun. 1991, 3, 207-212). Cells were seeded in 96 well plates at 2000 cells/well and allowed to adhere overnight in Dulbecco's modified Eagle's medium supplemented with 10% fetal bovine serum. The final culture volume was 100 μl. Viable cell number was determined by using the Celltiter 96 AQueous Non-radioactive Cell Proliferation Assay (Promega, Madison Wis.). The MTS/PMS (phenazine methosulfate) solution was mixed at a ratio of 20:1, and 20 μL was added per well to 100 μl of culture medium. After 2-4 hours, the formation of the formazan product was measured at 490 nm absorbance using a multiwell plate spectrophotometer. Background was determined by measuring the Abs 490 nm of cell culture medium and MTS-PMS in the absence of cells and was subtracted from all values. Percent viable cells was calculated as follows: % viable cells=(Abs at 490 nm treated cells/Abs at 490 nm untreated cells)×100
The effect of selected compounds of the invention on MCF7 breast carcinoma cells according to the MTS assay is summarized in Table 2. IC50 was defined as the concentration of the compound which gave rise to 50% reduction in viable cell number.

The test system of assay [2] is HER2/Neu protein. The assay can be described thus: HER2 Degradation Assay. The class given is cell-based. The following applies: Homo sapiens; MCF7 breast carcinoma cells, 16 h incubation, flow cytometry; concentration at which there was 50% degradation of the HER2/Neu protein. As to the method: MCF7 breast carcinoma cells (ATCC) were grown in Dulbecco's modified Eagle's medium (DMEM) containing 10% fetal bovine serum (FBS) and 10 mM HEPES, and plated in 24 well plates (50% confluent). Twenty-four hrs later (cells are 65-70% confluent), test compounds were added and incubated overnight for 16 h. […] The wells were washed with 1 mL phosphate buffered saline (PBS), and 200 μL trypsin was added to each well. After trypsinization was complete, 50 μL of FBS was added to each well. Then 200 μL cells was transferred to 96 well plates. The cells were pipetted up and down to obtain a single cell suspension. The plates were centrifuged at 2,500 rpm for 1 min using a Sorvall Legend RT™0 tabletop centrifuge (Kendro Laboratory Products, Asheville, N.C.). The cells were then washed once in PBS containing 0.2% BSA and 0.2% sodium azide (BA buffer). Phycoerythrin (PE) conjugated anti HER2/Neu antibody (Becton Dickinson, #340552), or PE conjugated anti-keyhole limpet hemocyanin [KLH] (Becton Dickinson; #340761) control antibody was added at a dilution of 1:20 and 1:40 respectively (final concentration was 1 μg/mL) and the cells were pipetted up and down to form a single cell suspension, and incubated for 15 mins. The cells were washed twice with 200 μL BA buffer, and resuspended in 200 μL BA buffer, and transferred to FACSCAN tubes with an additional 250 µL BA buffer. Samples were analyzed using a FACS Calibur™ flow cytometer (Becton Dickinson, San Jose, Calif.) equipped with Argon-ion laser that emits 15 mW of 488 nm light for excitation of the PE fluorochrome. 10,000 events were collected per sample. A fluorescence histogram was generated and the mean fluorescence intensity (MFI) of each sample was determined using Cellquest software. The background was defined as the MFI generated from cells incubated with control IgG-PE, and was subtracted from each sample stained with the HER2/Neu antibody. Cells incubated with DMSO were used as untreated controls since the compounds were resuspended in DMSO. Percent degradation of HER2 was calculated as follows: % HER2 degraded=[(MFI untreated cells−MF1 treated cells)/MFI untreated cell]×100
IC50 is defined as the concentration at which there was 50% degradation of the HER2/Neu protein.
A general note: In flow cytometry, cells or beads pass a laser one at a time.

For `Cc1cnc(Cn2c(=O)n(CCn3cccc3)c3c(Cl)nc(N)nc32)c(C)c1I` [Example 96, 7-(2-(1H-pyrrol-1-yl)ethyl)-2-amino-6-chloro-9-((4-iodo-3,5-dimethylpyridin-2-yl)methyl)-7H-purin-8(9H)-one], the results for the IC50 in assay [1] and in assay [2] were 300 nM and 42 nM, respectively.

For `Cc1cnc(Cn2c(=O)n(CCN(C(C)C)C(C)C)c3c(Cl)nc(N)nc32)c(C)c1I` [Example 98, 2-amino-6-chloro-7-(2-(diisopropylamino)ethyl)-9-((4-iodo-3,5-dimethylpyridin-2-yl)methyl)-7H-purin-8(9H)-one], the IC50 in assay [1] came out at 600 nM; in assay [2], 30 nM.

On to `COC(=O)c1ccc(Cn2c(=O)n(Cc3ncc(C)c(OC)c3C)c3nc(N)nc(Cl)c32)cc1` [Example 80, 4-[2-Amino-6-chloro-9-(4-methoxy-3,5-dimethyl-pyridin-2-ylmethyl)-8-oxo-8,9-dihydro-purin-7-ylmethyl]-benzoic acid methyl ester], for which the IC50 in assay [1] is above 1000 nM; in assay [2], 160 nM.

Turning to `COc1c(C)cnc(Cn2c(=O)n(CCC=C(C)C)c3c(Cl)nc(N)nc32)c1C` [Example 20, 2-Amino-6-chloro-9-(4-methoxy-3,5-dimethyl-pyridin-2-ylmethyl)-7-(4-methyl-pent-3-enyl)-7,9-dihydro-purin-8-one], the IC50 in assay [1] is above 1000 nM; in assay [2], 140 nM.

As to `COc1c(C)cnc(Cn2c(=O)n(Cc3ccccn3)c3c(Cl)nc(N)nc32)c1C` [Example 82, 2-Amino-6-chloro-9-(4-methoxy-3,5-dimethyl-pyridin-2-ylmethyl)-7-pyridin-2-ylmethyl-7,9-dihydro-purin-8-one], the IC50 came to 1000 nM in assay [1] and 170 nM in assay [2].

With `Cc1cnc(Cn2c(=O)n(Cc3ccccn3)c3c(Cl)nc(N)nc32)c(C)c1I` [Example 99, 2-amino-6-chloro-9-((4-iodo-3,5-dimethylpyridin-2-yl)methyl)-7-(pyridin-2-ylmethyl)-7H-purin-8(9H)-one], the IC50 was above 1000 nM in assay [1] and 120 nM in assay [2].

On to `COc1c(C)cnc(Cn2c(=O)n(CCC(F)=C(F)F)c3c(Cl)nc(N)nc32)c1C` [Example 71, 2-Amino-6-chloro-9-(4-methoxy-3,5-dimethyl-pyridin-2-ylmethyl)-7-(3,4,4-trifluoro-but-3-enyl)-7,9-dihydro-purin-8-one], for which the half-maximal inhibitory concentration (IC50) was above 1000 nM in assay [1] and 160 nM in assay [2].

Regarding `CC(=O)n1c(=O)n(Cc2ncc(C)c(I)c2C)c2nc(N)nc(Cl)c21` [Example 105, 7-acetyl-2-amino-6-chloro-9-((4-iodo-3,5-dimethylpyridin-2-yl)methyl)-7H-purin-8(9H)-one], the figures for the IC50 in assay [1] and in assay [2] were 300 nM and 90 nM, respectively.

As for `COc1c(C)cnc(Cn2c(=O)n(CCn3cccc3)c3c(Cl)nc(N)nc32)c1C` [Example 89, 2-Amino-6-chloro-9-(4-methoxy-3,5-dimethyl-pyridin-2-ylmethyl)-7-(2-pyrrol-1-yl-ethyl)-7,9-dihydro-purin-8-one], the IC50 in assay [1] was 1000 nM; in assay [2] it was 120 nM.

Take `C=CCCCn1c(=O)n(Cc2ncc(C)c(OC)c2C)c2nc(N)nc(Cl)c21` [Example 35, 2-Amino-6-chloro-9-(4-methoxy-3,5-dimethyl-pyridin-2-ylmethyl)-7-pent-4-enyl-7,9-dihydro-purin-8-one]: the IC50 worked out at 1000 nM in assay [1] and 160 nM in assay [2].

Take `Cc1cnc(Cn2c(=O)n(CCN(C)C(C)C)c3c(Cl)nc(N)nc32)c(C)c1I` [Example 108, 2-amino-6-chloro-9-((4-iodo-3,5-dimethylpyridin-2-yl)methyl)-7-(2-(isopropyl(methyl)amino)ethyl)-7H-purin-8(9H)-one]: the figures for the IC50 in assay [1] and in assay [2] were 700 nM and 140 nM, respectively.

On to `Cc1cnc(Cn2c(=O)[nH]c3c(Cl)nc(N)nc32)c(C)c1I` [Example 6, 2-amino-6-chloro-9-((4-iodo-3,5-dimethylpyridin-2-yl)methyl)-7H-purin-8(9H)-one], for which the IC50 in assay [1] turned out to be 300 nM; in assay [2], 70 nM.

Take `CCCN(CCC)CCn1c(=O)n(Cc2ncc(C)c(I)c2C)c2nc(N)nc(Cl)c21` [Example 107, 2-amino-6-chloro-7-(2-(dipropylamino)ethyl)-9-((4-iodo-3,5-dimethylpyridin-2-yl)methyl)-7H-purin-8(9H)-one]: the results for the IC50 in assay [1] and in assay [2] were above 1000 nM and 130 nM, respectively.

A word on the IC50: it is the point on the concentration scale where inhibition reaches its midpoint.
